Source: patent US12653816B2, “Composition for inhibiting growth of cancer stem cells” (INDUSTRY-ACADEMIC COOPERATION FOUNDATION, YONSEI UNIVERSITY, priority 2020, dated 2026)

Tests used:
[1] = test system: human colonic myofibroblasts; details: cited from earlier work
[2] = test system: murine model of skin injury; details: cited from earlier work
HS746T cell line [3] = test: Cell viability assay (Cell Counting Kit-8), HS746T; type: cell-based, human; details: for antitumor effect (number of living cells) / antitumor effect (cell viability): treatment alone, 48 hours; for antitumor effect (number of living cells): cisplatin 5 and 10 μM, compounds 5 and 10 μg/ml, FIGS. 7A and 7B; for antitumor effect (cell viability): HS746T stem-like cells, various concentrations, FIG. 1
Description: (§1) In order to evaluate the ability to inhibit the growth or metastasis of cancer cells or cancer stem cells in the examples according to the present invention, the present inventors obtained MKN1 and HS746T, which are cell lines having human gastric cancer stem cell characteristics, and SNU601, YCC7 and NCIN87 cells, which are human gastric cancer cell lines, from the American Type Culture Collection (ATCC) and the Korean Cell Line Bank (KCRB). The cell lines were cultured in different culture media and culture conditions according to ATCC's or KCRB's guidelines. The MKN1, SNU601, and NCIN87 cell lines were cultured in RPMI1640 medium containing 10% fetal bovine serum (FBS), 2 mM L-glutamine, 100 U/ml penicillin and 100 μg/ml streptomycin, and the HS746T and YCC7 Cell lines were cultured in DMEM containing 10% FBS, 2 mM L-glutamine, 100 U/ml penicillin and 100 μg/ml streptomycin. All the cell lines were cultured at 37° C. under 5% CO2, and subjected to a mycoplasma contamination test.
(§2) Each of the cell lines cultured in the Preparation Example was dispensed into a well plate at a density of 1×10^4 cells per well, and cultured overnight at 37° C. under 5% CO2. Then, the HS746T and MKN1 cell lines, which are gastric cancer stem-like cells, and the YCC7 and NCIN87 cell lines, which are gastric cancer cells, were treated with various concentrations of each of cisplatin (CDDP), which is an anticancer drug currently frequently used in the treatment of gastric cancer patients, and the compound CCG-232601 which is an MRTF-A inhibitor. 100 μL of each cell culture and 10 μL of reaction buffer (CCK) were mixed together, placed in a 96-well plate, and incubated for 1 hour at room temperature, and then the absorbance at a wavelength of 450 nm was measured using a spectrophotometer (Synergy HTX Multi-Reader, BioTek, Winooski, VT, USA). At the same time, the number of cells in each sample was measured with a cell viability assay kit (Cell Counting Kit-8), and the measured value was converted so that the measured value for the same number of cells in each sample could be compared with the number of cells in the negative control group. The experimental results presented are the mean values of the repeated experiments.
The present inventors attempted to further confirm the therapeutic effects of the compounds CCG-222740 and CCG-203971, which are compounds other than the compound CCG-232601 corresponding to the MRTFA/SRF inhibitors, against cancer stem cells. As reviewed in Example 1 above, it has been confirmed that the gastric cancer cell line HS746T is of a stem cell-like gastric cancer type, and thus is resistant to the anticancer drug cisplatin. The HS746T cell line was treated with cisplatin and the compounds CCG-222740 and CCG-203971 corresponding to MRTFA/SRF inhibitors. For cell treatment, cisplatin was used at concentrations of 0 μM, 5 μM and 10 μM, and the compound CCG-222740 or CCG-203971 was used at concentrations of 0 μg/ml, 5 μg/ml and 10 μg/ml. The control group was treated with the same amount of DMSO as the compound used for each experimental group. After 48 hours, the number of living cells was measured using a cell viability assay kit (Cell Counting Kit-8), and the results are shown in FIGS. 7A and 7B.

[4] = test system: lung fibrosis lung fibroblasts; details: cited from earlier work
[5] = test system: alpha smooth muscle actin protein; details: cited from earlier work
[6] = test system: preclinical model of fibrosis; details: cited from earlier work
YCC7 cell line = test: Cell viability assay (Cell Counting Kit-8), YCC7; type: cell-based, human; details: YCC7 gastric cancer cells, treatment alone, various concentrations, 48 hours, FIG. 1
Description: (§3) In order to evaluate the ability to inhibit the growth or metastasis of cancer cells or cancer stem cells in the examples according to the present invention, the present inventors obtained MKN1 and HS746T, which are cell lines having human gastric cancer stem cell characteristics, and SNU601, YCC7 and NCIN87 cells, which are human gastric cancer cell lines, from the American Type Culture Collection (ATCC) and the Korean Cell Line Bank (KCRB). The cell lines were cultured in different culture media and culture conditions according to ATCC's or KCRB's guidelines. […]
(§4) Each of the cell lines cultured in the Preparation Example was dispensed into a well plate at a density of 1×10^4 cells per well, and cultured overnight at 37° C. under 5% CO2. […] 100 μL of each cell culture and 10 μL of reaction buffer (CCK) were mixed together, placed in a 96-well plate, and incubated for 1 hour at room temperature, and then the absorbance at a wavelength of 450 nm was measured using a spectrophotometer (Synergy HTX Multi-Reader, BioTek, Winooski, VT, USA). At the same time, the number of cells in each sample was measured with a cell viability assay kit (Cell Counting Kit-8), and the measured value was converted so that the measured value for the same number of cells in each sample could be compared with the number of cells in the negative control group. […]

[7] = test system: bleomycin-induced dermal fibrosis; details: administered orally to mice; cited from earlier work
MKN1 cell line [8] = test: Oxygen consumption rate and extracellular acidification rate (Seahorse), MKN1; type: cell-based, human
Description: (§5) In particular, in order to confirm that the compound CCG-232601 has an excellent inhibitory effect on cancer stem cell growth, the oxygen consumption rates (OCRs) and extracellular acidification rates (ECARs) of the stem-like cell lines HS746T and MKN1 having high resistance to metabolic stress were measured and the results are shown in FIG. 2. More specifically, each of the cell lines was seeded in Seahorse normal culture medium at 70 to 80% confluency, and mitochondrial oxidation and glycolytic activity were measured by measuring oxygen consumption rate (OCR, pmol/min/μg protein) and extracellular acidification rate (ECAR, mpH/min/μg protein) using an XF96 or XFp extracellular flux analyzer (Agilent). Mitochondrial oxidation ability of cells pretreated for 1 hour with or without 10 mM β-HB (Sigma) was evaluated using the Seahorse XF mito stress kit (Agilent). To address changes in oxidation and glycolysis upon treatment with CCG-232601, cells were pretreated overnight with vehicle or the inhibitor, and finally 10 mM β-hydroxybutyrate was added during the first injection.

NCIN87 cell line = test: Cell viability assay (Cell Counting Kit-8), NCIN87; type: cell-based, human; details: NCIN87 gastric cancer cells, treatment alone, various concentrations, 48 hours, FIG. 1
Description: as §3, §4

MKN1 cell line [9] = test: Cell viability assay (Cell Counting Kit-8), MKN1; type: cell-based, human; details: for antitumor effect (cell viability): MKN1 stem-like cells, treatment alone, various concentrations, 48 hours, FIG. 1
Description: as §1, §2
Accordingly, in order to evaluate the effect of co-administration of the compound CCG-232601, the survival and growth inhibitory effects of administration of CCG-232601 and cisplatin (CDDP) alone or in combination to the MKN1 cell line were evaluated using a cell viability assay kit (Cell Counting Kit-8; CCK-8). In order to evaluate the effect of administration in combination compared to that of administration alone, 5 μg/ml of CCG-232601 was firstly administered to the MKN1 cell line, and after 24 hours, 5 μM cisplatin (CDDP) was secondarily administered. After 24 hours therefrom, the results were checked with a cell viability analysis kit (CCK-8 assay).

HS746T cell line [10] = test: Transwell invasion assay, HS746T; type: cell-based, human; details: 10 μg/ml, 12 hours, Matrigel transwell, FIG. 3
Description: (§6) Transwell invasion assay was performed with or without CCG-232601 treatment. The invasion ability was measured using a 6.5-mm transwell with an 8.0 μm-pore polycarbonate membrane insert (Corning) after coating with Matrigel (Corning) diluted to 0.67 μg/μl with serum-free medium. Then, cells (2×10^4 cells/well) were suspended in 200 μL of a serum-free medium with vehicle or in 10 μg/ml of CCG-232601, and 1,000 μL of culture medium containing 10% FBS was added to the lower chamber. After 12 hours, the migrated cells were stained with 0.2% crystal violet and observed under an optical microscope. The average number of cells that penetrated the membrane was calculated with ImageJ (NIH) from three randomly selected high-power fields and from two independent experiments, and the results are shown in FIG. 3.

MKN1 cell line [11] = test: Transwell invasion assay, MKN1; type: cell-based, human; details: MKN1, 10 μg/ml, 12 hours, Matrigel transwell, FIG. 3
Description: as §6

HS746T cell line [12] = test: Oxygen consumption rate and extracellular acidification rate (Seahorse), HS746T; type: cell-based, human
Description: as §5

O=C(Nc1ccc(Cl)cc1)C1CCCN(C(=O)c2cccc(-c3ccco3)c2)C1 (centres unmarked) [CCG-203971, N-(4-chlorophenyl)-1-(3-(furan-2-yl)benzoyl)piperidine-3-carboxamide]
matrix stiffness and TGF-β-mediated fibrogenesis [1]: inhibits both matrix stiffness and TGF-β-mediated fibrogenesis
anti-fibrotic activity [2]: exhibits anti-fibrotic activity
antitumor effect (number of living cells) (HS746T cell line [3]; HS746T): significantly improved antitumor effect
anti-fibrotic activity [4]: exhibits anti-fibrotic activity

O=C(Nc1ccc(Cl)cc1)C1CN(C(=O)c2cccc(-c3ccco3)c2)CC(F)(F)C1 (centres unmarked) [CCG-222740, N-(4-Chlorophenyl)-5,5-difluoro-1-(3-(furan-2-yl)benzoyl)piperidine-3-carboxamide]
expression of alpha smooth muscle actin protein [5]: prevent the expression of alpha smooth muscle actin protein
scar tissue formation [6]: effectively prevent scar tissue formation
antitumor effect (number of living cells) (HS746T cell line [3]; HS746T): significantly improved antitumor effect

O=C(Nc1ccc(Cl)cc1)C1CN(C(=O)c2cccc(-c3ccncc3)c2)CC(F)(F)C1 (centres unmarked) [CCG-232601, N-(4-chlorophenyl)-5,5-difluoro-1-(3-(pyridin-4-yl)benzoyl)piperidine-3-carboxamide]
antitumor effect (cell viability) (YCC7 cell line): exhibited antitumor effects
development of bleomycin-induced dermal fibrosis [7]: suppress the development of bleomycin-induced dermal fibrosis
extracellular acidification rate (ECAR) versus oxygen consumption rate (OCR) (MKN1 cell line [8]; MKN1, pretreated overnight, 10 mM β-hydroxybutyrate at first injection, FIG. 2): the glycolysis ECAR was higher than OCR
sensitivity to glucose deprivation (MKN1 cell line [8]; gastric cancer stem cells (MKN1)): greatly increased the sensitivity to glucose deprivation
antitumor effect (cell viability) (NCIN87 cell line): exhibited antitumor effects
cell viability lower than in the negative control group and the cisplatin-only group (MKN1 cell line [9]; MKN1, 5 μg/ml administered alone, CCK-8, FIG. 6): 20%
antitumor effect (cell viability) (MKN1 cell line [9]): significantly improved antitumor effects
antitumor effect (cell viability) (HS746T cell line [3]): significantly improved antitumor effects
invasion and metastasis (cells that penetrated the membrane) (HS746T cell line [10]): reduced the invasion and metastasis
invasion and metastasis (cells that penetrated the membrane) (MKN1 cell line [11]): reduced the invasion and metastasis
extracellular acidification rate (ECAR) versus oxygen consumption rate (OCR) (HS746T cell line [12]; HS746T, pretreated overnight, 10 mM β-hydroxybutyrate at first injection, FIG. 2): the glycolysis ECAR was higher than OCR
sensitivity to glucose deprivation (HS746T cell line [12]; gastric cancer stem cells (HS746T)): greatly increased the sensitivity to glucose deprivation

N.N.[Cl][Pt][Cl] [cisplatin]
drug sensitivity upon cisplatin (CDDP) treatment (MKN1 cell line [9]; MKN1, FIG. 4): exhibited resistance to cisplatin
antitumor effect (cell viability) (MKN1 cell line [9]): did not exhibit antitumor effects
drug sensitivity lower than that of the cancer cell lines (MKN1 cell line [9]; MKN1 versus SNU601 and NCIN87, cisplatin, FIG. 4): 20 to 40%
antitumor effect (cell viability) (HS746T cell line [3]): did not exhibit antitumor effects
drug sensitivity lower than that of the cancer cell lines (HS746T cell line [3]; HS746T versus SNU601 and NCIN87, cisplatin, FIG. 4): 20 to 40%
drug sensitivity upon cisplatin (CDDP) treatment (HS746T cell line [3]; HS746T, FIG. 4): exhibited resistance to cisplatin
antitumor effect (number of living cells) (HS746T cell line [3]; HS746T): did not exhibit an antitumor effect
